The text below walks through data of ChEMBL document CHEMBL1124563, “On the structure selectivity problem in drug design. A comparative study of benzylpyrimidine inhibition of vertebrate and bacterial dihydrofolate reductase via molecular graphics and quantitative structure-activity relationships” (J Med Chem, 1989).

Series [1] in a line: Partition coefficient (logD) (aqueous phase 0.1 N HCl).
Series [2] can be described thus: Partition coefficient (logD) (0.01 N NaOH). The format is physicochemical.
In series [3] the target is T1, Dihydrofolate reductase (Gallus gallus, UniProt P00378).
T1 sequence (P00378 whole entry): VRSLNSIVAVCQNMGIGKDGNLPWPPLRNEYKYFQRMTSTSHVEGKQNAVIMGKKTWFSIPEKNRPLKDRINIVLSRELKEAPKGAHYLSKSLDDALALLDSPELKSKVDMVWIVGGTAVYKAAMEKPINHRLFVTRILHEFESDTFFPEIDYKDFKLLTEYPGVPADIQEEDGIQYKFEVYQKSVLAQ
Description: Inhibitory activity against chicken liver dihydrofolate reductase

Series [4] deals with Dihydrofolate reductase (Lactobacillus casei, UniProt P00381).
Description: Inhibitory activity against Lactobacillus casei dihydrofolate reductase
Series [5] can be described thus: Toxic index against Dihydrofolate reductase. The class given is ADME.

Molecules are shown by their SMILES. pKi: −log10 of the molar value.

Sequence of Dihydrofolate reductase (Lactobacillus casei, UniProt P00381) (P00381 whole entry): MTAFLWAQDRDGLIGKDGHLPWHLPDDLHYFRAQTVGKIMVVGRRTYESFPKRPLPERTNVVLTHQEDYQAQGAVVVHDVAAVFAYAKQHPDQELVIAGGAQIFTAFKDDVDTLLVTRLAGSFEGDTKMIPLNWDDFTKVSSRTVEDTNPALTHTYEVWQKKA

The term logD denotes the decadic logarithm of the distribution of all forms, ionised or not, between an organic phase and buffer at a given pH. In the case of `CC(=O)Nc1ccc(Cc2cnc(N)nc2N)cc1[N+](=O)[O-]`, the pH-dependent lipophilicity (logD) in series [1] (0.1 N HCl (aqueous phase)) is -2.23.

Take `COc1cccc(Cc2cnc(N)nc2N)c1`: the logD in series [2] (octanol/water) is 1.54.

On to `Nc1ccc(Cc2cnc(N)nc2N)cc1`, for which, in series [2] (0.01 N NaOH, read-out: logD), the log distribution coefficient (logD) is 0.22.

The term pKi denotes the negative decadic logarithm of the Ki, by convention in mol/L. A high value points to a low Ki. With `Nc1ncc(Cc2ccc(OC(F)(F)F)cc2)c(N)n1`, the negative logarithm of the Ki (pKi) on Dihydrofolate reductase [3] was 4.32.

As for `CCOc1cc(Cc2cnc(N)nc2N)ccc1OCc1ccccc1`, the negative logarithm of the Ki (pKi) is 6.51 at Dihydrofolate reductase [4] and 4.74 at Dihydrofolate reductase [3]. In addition, the logD in series [1] (0.1 N HCl (aqueous phase)) amounted to 1.

For `COc1cc(Cc2cnc(N)nc2N)ccc1OCc1ccccc1`, the negative logarithm of the Ki (pKi) on Dihydrofolate reductase [4] is 6.50; on Dihydrofolate reductase [3] it was 4.72. The logD in series [2] (0.01 N NaOH, read-out: logD) is 2.66.

With `Nc1ncc(Cc2ccccc2)c(N)n1`, the pH-dependent lipophilicity (logD) in series [2] (octanol/water) is 1.54.

Consider `COc1ccc(Cc2cnc(N)nc2N)cc1C(F)(F)F`, for which the pKi at Dihydrofolate reductase [4] is 7.10. Also, the log distribution coefficient (logD) in series [1] (0.1 N HCl (aqueous phase)) is -0.18.

`Nc1ncc(Cc2ccc(O)c(O)c2)c(N)n1`: in series [1] (0.1 N HCl (aqueous phase)), the pH-dependent lipophilicity (logD) was determined as 2.08.

Turning to `CCCCOCc1cccc(Cc2cnc(N)nc2N)c1`, in series [2] (0.01 N NaOH, read-out: logD), the pH-dependent lipophilicity (logD) turned out to be 2.88.

In the case of `COc1ccc(Cc2cnc(N)nc2N)cc1OCc1ccccc1`, the results for the pKi at Dihydrofolate reductase [4] and on Dihydrofolate reductase [3] were 6.91 and 4.74, respectively. Moreover, the logD in series [2] (0.01 N NaOH, read-out: logD) amounted to 2.44.

As for `CS(=O)(=O)Oc1ccc(Cc2cnc(N)nc2N)cc1`, the results for the pKi on Dihydrofolate reductase [4] and on Dihydrofolate reductase [3] were 6.49 and 4.31, respectively. Further, the logD in series [2] (0.01 N NaOH, read-out: logD) was determined as 0.6.

For `COc1ccc(Cc2cnc(N)nc2N)cc1OS(C)(=O)=O`, the values for the negative logarithm of the Ki (pKi) at Dihydrofolate reductase [4] and at Dihydrofolate reductase [3] were 6.67 and 4.53, respectively. In addition, in series [1] (0.1 N HCl (aqueous phase)), the pH-dependent lipophilicity (logD) was -1.92.

As for `COCCOc1c(Cc2cnc(N)nc2N)ccc(OC)c1OC`, the figures for the negative-log Ki (pKi) on Dihydrofolate reductase [4] and at Dihydrofolate reductase [3] were 6.26 and 3.64, respectively. Moreover, the logD in series [1] (0.1 N HCl (aqueous phase)) was -1.81. Besides, the Toxic index in series [5] is given as 2.62.

With `COc1ccc(Cc2cnc(N)nc2N)cc1O`, the pKi was 6.59 at Dihydrofolate reductase [4] and 3.85 at Dihydrofolate reductase [3]. Also, the log distribution coefficient (logD) in series [2] (0.01 N NaOH, read-out: logD) stood at 0.74.

On to `Nc1ncc(Cc2cccc(O)c2)c(N)n1`, for which the logD in series [1] (0.1 N HCl (aqueous phase)) was -1.34.

On Dihydrofolate reductase [4], `CCCCCCCOc1ccc(Cc2cnc(N)nc2N)cc1` had a pKi of 5.38.

As for `COCCOc1ccc(Cc2cnc(N)nc2N)cc1OCCOC`, the log distribution coefficient (logD) in series [1] (octanol/water) is on record as 1.89.

With `CCc1cc(Cc2cnc(N)nc2N)cc(CO)c1CO`, the pKi at Dihydrofolate reductase [4] is 6.71; at Dihydrofolate reductase [3], 3.58. In addition, the logD in series [1] (0.1 N HCl (aqueous phase)) was -2.23. In addition, the Toxic index in series [5] turned out to be 3.13.

As for `Nc1ncc(Cc2ccc(-c3ccccc3)cc2)c(N)n1`, the negative logarithm of the Ki (pKi) was 6.41 on Dihydrofolate reductase [4] and 5.26 on Dihydrofolate reductase [3]. In series [1] (0.1 N HCl (aqueous phase)), this molecule had a logD of 0.98.

Turning to `Nc1ncc(Cc2ccc3c(c2)OCO3)c(N)n1`, the negative logarithm of the Ki (pKi) was 6.34 on Dihydrofolate reductase [4] and 4.68 on Dihydrofolate reductase [3].

For `Nc1ncc(Cc2ccc(OCc3ccccc3)cc2)c(N)n1`, the results for the pKi at Dihydrofolate reductase [4] and at Dihydrofolate reductase [3] were 6.35 and 4.83, respectively.

As to `CCCCCCCCOc1c(OC)cc(Cc2cnc(N)nc2N)cc1OC`, the figures for the pKi at Dihydrofolate reductase [4] and on Dihydrofolate reductase [3] were 5.70 and 4.77, respectively.

As to `CCCOc1cc(Cc2cnc(N)nc2N)cc(OCCC)c1`, the negative-log Ki (pKi) is 6.19 at Dihydrofolate reductase [4] and 4.13 on Dihydrofolate reductase [3].

With `Cc1cc(C)cc(Cc2cnc(N)nc2N)c1`, at Dihydrofolate reductase [4], the negative-log Ki (pKi) was 5.87.

On to `Nc1ncc(Cc2ccc(O)cc2)c(N)n1`, for which the results for the pKi on Dihydrofolate reductase [4] and at Dihydrofolate reductase [3] were 6.38 and 4.17, respectively. The logD in series [1] (0.1 N HCl (aqueous phase)) was -1.47.

As to `COCCOc1ccc(Cc2cnc(N)nc2N)cc1OC`, the values for the negative-log Ki (pKi) on Dihydrofolate reductase [4] and at Dihydrofolate reductase [3] were 6.54 and 4.19, respectively. In addition, the log distribution coefficient (logD) in series [1] (0.1 N HCl (aqueous phase)) was -1.87.

With `CCCOc1cc(Cc2cnc(N)nc2N)cc(OCC)c1`, the pKi at Dihydrofolate reductase [4] is 6.23; on Dihydrofolate reductase [3], 4.36.

With `CCCCCCCCOc1cc(Cc2cnc(N)nc2N)ccc1OC`, the pKi on Dihydrofolate reductase [4] is 6.50; at Dihydrofolate reductase [3], 4.71. The same molecule yielded a logD in series [1] (0.1 N HCl (aqueous phase)) of 2.54.

`CCc1cc(Cc2cnc(N)nc2N)cc(NC(C)=O)c1CO`: the figures for the negative-log Ki (pKi) on Dihydrofolate reductase [4] and on Dihydrofolate reductase [3] were 6.82 and 3.46, respectively. The same molecule gave a log distribution coefficient (logD) in series [1] (0.1 N HCl (aqueous phase)) of -2.17. Further, in series [5], the Toxicity index came out at 3.36.

As to `COc1cc(Cc2cnc(N)nc2N)ccc1OS(C)(=O)=O`, the pKi is 6.44 on Dihydrofolate reductase [4] and 4.59 on Dihydrofolate reductase [3]. Also, the pH-dependent lipophilicity (logD) in series [2] (0.01 N NaOH, read-out: logD) worked out at 0.6.

Consider `CCc1cc(Cc2cnc(N)nc2N)cc(CC)c1CC`, for which the negative logarithm of the Ki (pKi) on Dihydrofolate reductase [4] was 6.88; at Dihydrofolate reductase [3] it was 5.25.

On to `C=C(C)c1c(OC)cc(Cc2cnc(N)nc2N)cc1OC`, for which the pKi at Dihydrofolate reductase [4] is 7.34; at Dihydrofolate reductase [3], 4.17. The logD in series [2] (0.01 N NaOH, read-out: logD) was found to be 2.07.

As for `COc1cc(Cc2cnc(N)nc2N)ccc1O`, the negative logarithm of the Ki (pKi) at Dihydrofolate reductase [4] was 6.47; at Dihydrofolate reductase [3], 4.31. Moreover, the pH-dependent lipophilicity (logD) in series [2] (0.01 N NaOH, read-out: logD) turned out to be 0.64.

As for `CCOc1cc(Cc2cnc(N)nc2N)cc(OCC)c1`, the negative-log Ki (pKi) on Dihydrofolate reductase [4] is 6.41; at Dihydrofolate reductase [3], 4.14.

Consider `COc1cc(Cc2cnc(N)nc2N)cc(OC)c1N(C)C` [ADITOPRIM], for which the values for the pKi at Dihydrofolate reductase [4] and at Dihydrofolate reductase [3] were 6.45 and 4.15, respectively.

`COc1cc(Cc2cnc(N)nc2N)cc(OC)c1Br` [BRODIMOPRIM] had a negative-log Ki (pKi) at Dihydrofolate reductase [4] of 7.28. The logD in series [2] (0.01 N NaOH, read-out: logD) was determined as 2.01.

For `COc1ccc(Cc2cnc(N)nc2N)cc1OC` [DIAVERIDINE], in series [2] (0.01 N NaOH, read-out: logD), the logD was 0.97.

As to `CCOc1cc(Cc2cnc(N)nc2N)cc(OCC)c1-n1cccc1` [EPIROPRIM], the pKi at Dihydrofolate reductase [4] was 7.33; on Dihydrofolate reductase [3] it was 4.33.

On to `COc1cc(Cc2cnc(N)nc2N)cc(OC)c1SC` [METIOPRIM], for which the pKi at Dihydrofolate reductase [4] was 7.25. Also, the logD in series [2] (0.01 N NaOH, read-out: logD) was found to be 1.54.
